Test: Solubility of Compound A
Type: physicochemical
Method: The present invention addresses the prior art issues of low bioavailability of certain drugs such as COX-2 selective inhibitors useful for the treatment of, for example, arthritis and rheumatic pain. […] Compound A, a COX-2 selective inhibitor, is a white to off-white odorless crystalline, anhydrous powder. At room temperature it is soluble in methylene chloride, and acetonitrile. […] The aqueous solubility of the drug is less than 2 µg/mL at 22 degrees Celsius at pH 6.2.

## CS(=O)(=O)c1ccc(/C(=C2\CCOC2=O)c2ccc(Br)cc2)cc1 [Compound A, (Z)-3-[1-(4-bromophenyl)-1-(4-methylsulfonylphenyl)methylidine]-dihydrofuran-2-one]
Room temperature
  solubility in methylene chloride, and acetonitrile: soluble
water
  solubility in water: poorly soluble

— patent US20040185110A1, “Formulations of low solubility bioactive agents and processes for making the same” (priority 2002, published 2004)
